The target in one assay is AR / CBP ternary complex (Homo sapiens, UniProt P10275+Q92793). Briefly: Ternary complex formation assay (sandwich ELISA, AR capture, CBP antibody detection) in VCaP cell lysates. Type of assay: cell-based. A digest of the protocol: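 VCaP cells in 5% charcoal-stripped FBS were cultured ≥3 days and then given bifunctional compound for 1.5 h. Lysates went onto AR-antibody-coated plates. Bound CBP (or p300) was detected with a rabbit antibody plus HRP anti-rabbit, using QuantaRed chemifluorescence (ex 570/em 585) read immediately, at 5 min and at 15 min.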
Sequence of AR / CBP ternary complex (P10275 whole entry): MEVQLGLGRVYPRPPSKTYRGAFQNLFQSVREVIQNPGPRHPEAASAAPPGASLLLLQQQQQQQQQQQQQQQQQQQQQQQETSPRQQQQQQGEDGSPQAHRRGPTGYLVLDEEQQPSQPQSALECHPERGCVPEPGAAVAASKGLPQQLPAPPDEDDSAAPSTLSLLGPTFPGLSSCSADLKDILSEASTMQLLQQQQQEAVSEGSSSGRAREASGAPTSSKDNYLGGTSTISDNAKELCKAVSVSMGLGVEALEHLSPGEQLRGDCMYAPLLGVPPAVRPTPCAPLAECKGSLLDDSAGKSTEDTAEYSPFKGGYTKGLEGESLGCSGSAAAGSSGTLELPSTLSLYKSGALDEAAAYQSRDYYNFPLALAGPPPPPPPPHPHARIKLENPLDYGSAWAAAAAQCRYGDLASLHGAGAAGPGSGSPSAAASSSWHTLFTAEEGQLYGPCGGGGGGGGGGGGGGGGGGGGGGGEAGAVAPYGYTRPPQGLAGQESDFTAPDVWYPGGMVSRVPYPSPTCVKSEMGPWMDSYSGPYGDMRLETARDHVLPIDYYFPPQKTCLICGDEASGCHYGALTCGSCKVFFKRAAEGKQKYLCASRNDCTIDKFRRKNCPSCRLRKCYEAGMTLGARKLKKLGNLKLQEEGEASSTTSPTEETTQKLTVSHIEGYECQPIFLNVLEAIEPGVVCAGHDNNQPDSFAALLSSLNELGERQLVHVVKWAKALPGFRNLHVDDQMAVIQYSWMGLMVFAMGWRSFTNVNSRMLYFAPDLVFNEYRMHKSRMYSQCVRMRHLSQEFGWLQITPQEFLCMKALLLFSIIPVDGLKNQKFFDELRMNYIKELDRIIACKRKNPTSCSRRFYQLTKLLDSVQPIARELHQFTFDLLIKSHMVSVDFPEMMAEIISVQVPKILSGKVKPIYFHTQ
Sequence of AR / CBP ternary complex (Q92793 2-2442): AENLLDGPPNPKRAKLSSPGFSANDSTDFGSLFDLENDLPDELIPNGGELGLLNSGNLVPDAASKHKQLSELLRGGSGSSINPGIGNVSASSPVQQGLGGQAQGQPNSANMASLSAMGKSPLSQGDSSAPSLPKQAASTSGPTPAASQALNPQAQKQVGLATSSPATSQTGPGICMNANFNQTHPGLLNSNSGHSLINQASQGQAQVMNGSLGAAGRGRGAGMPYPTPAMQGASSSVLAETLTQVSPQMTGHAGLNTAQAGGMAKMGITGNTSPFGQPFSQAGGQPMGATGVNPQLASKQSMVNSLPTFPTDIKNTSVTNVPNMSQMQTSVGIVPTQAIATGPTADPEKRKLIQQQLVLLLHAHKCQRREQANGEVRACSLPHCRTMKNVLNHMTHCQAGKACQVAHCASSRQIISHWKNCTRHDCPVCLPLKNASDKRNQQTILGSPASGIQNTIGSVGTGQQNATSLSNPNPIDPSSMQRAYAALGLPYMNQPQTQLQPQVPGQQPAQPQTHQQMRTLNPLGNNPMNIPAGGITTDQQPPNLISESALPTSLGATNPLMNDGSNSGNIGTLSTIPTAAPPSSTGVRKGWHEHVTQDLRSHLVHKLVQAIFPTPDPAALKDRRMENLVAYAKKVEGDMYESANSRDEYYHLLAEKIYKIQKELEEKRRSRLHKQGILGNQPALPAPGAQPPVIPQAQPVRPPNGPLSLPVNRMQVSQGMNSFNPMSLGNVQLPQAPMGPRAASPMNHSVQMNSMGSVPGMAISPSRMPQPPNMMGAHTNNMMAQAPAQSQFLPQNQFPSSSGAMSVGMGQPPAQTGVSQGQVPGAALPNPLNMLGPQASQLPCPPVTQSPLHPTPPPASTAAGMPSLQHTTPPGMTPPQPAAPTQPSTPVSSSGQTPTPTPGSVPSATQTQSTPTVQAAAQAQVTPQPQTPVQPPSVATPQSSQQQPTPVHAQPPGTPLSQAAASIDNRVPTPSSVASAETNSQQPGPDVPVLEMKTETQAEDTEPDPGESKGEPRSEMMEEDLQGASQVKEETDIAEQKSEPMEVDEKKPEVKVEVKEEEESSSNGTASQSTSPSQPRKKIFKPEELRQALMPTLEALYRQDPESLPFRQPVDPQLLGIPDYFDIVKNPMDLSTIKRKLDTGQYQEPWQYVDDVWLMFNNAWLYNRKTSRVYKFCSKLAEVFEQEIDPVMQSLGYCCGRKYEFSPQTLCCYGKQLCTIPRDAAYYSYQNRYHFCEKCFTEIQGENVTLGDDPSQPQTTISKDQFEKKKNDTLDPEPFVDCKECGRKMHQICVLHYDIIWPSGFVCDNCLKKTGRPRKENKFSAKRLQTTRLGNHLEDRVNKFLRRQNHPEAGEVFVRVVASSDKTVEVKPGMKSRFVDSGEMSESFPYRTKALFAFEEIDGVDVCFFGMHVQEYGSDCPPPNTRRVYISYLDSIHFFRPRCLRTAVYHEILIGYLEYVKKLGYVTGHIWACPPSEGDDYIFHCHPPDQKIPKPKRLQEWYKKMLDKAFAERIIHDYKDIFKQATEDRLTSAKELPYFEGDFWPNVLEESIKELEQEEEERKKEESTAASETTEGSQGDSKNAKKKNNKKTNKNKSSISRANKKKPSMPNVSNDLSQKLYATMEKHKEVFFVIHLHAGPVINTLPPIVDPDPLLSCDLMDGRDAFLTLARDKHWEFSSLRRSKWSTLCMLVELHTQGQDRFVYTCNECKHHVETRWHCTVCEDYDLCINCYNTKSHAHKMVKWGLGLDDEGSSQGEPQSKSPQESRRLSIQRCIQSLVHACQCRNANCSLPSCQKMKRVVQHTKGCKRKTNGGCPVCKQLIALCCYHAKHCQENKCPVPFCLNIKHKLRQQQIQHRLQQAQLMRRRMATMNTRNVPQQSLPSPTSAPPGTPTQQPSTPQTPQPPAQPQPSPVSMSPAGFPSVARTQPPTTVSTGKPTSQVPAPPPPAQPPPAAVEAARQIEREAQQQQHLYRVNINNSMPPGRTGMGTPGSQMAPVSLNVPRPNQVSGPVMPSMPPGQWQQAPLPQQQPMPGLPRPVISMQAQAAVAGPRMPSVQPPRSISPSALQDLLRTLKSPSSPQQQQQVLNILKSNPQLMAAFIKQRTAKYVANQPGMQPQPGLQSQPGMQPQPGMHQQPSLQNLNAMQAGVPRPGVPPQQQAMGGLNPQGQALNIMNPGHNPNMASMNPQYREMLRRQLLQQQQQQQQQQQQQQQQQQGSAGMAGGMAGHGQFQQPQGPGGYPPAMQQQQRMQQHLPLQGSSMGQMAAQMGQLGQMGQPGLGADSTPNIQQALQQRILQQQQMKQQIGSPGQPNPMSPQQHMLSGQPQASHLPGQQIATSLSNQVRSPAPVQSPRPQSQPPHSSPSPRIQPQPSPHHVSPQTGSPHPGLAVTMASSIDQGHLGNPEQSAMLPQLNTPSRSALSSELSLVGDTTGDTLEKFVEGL
In general terms: ELISA stands for enzyme-linked immunosorbent assay.

In the next assay the test system is VCaP cells. Briefly: VCaP growth inhibition assay (CTG). Type of assay: cell-based. The note with it: Homo sapiens, 216 h, 30 pM R1881, 9 days. A digest of the protocol: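 VCaP cells in phenol red-free DMEM with 5% charcoal-stripped serum were stimulated with 30 pM R1881 (final) and treated with compound from 100 nM to 10 fM final (1:5 dilutions) for 9 days at 37 °C. Viability was read by CellTiter-Glo luminescence, and IC50 came from 4-parameter logistic fits.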

Setting [1] is: treated 1.5 hours, rabbit CBP or p300 antibody detection, average, read-out: Average Ternary Complex.

Where two headings read alike, the source gives them in different places.

As to `CC(=O)N1CCc2c(c(N3CCCc4cc(-c5cnn(C)c5)c(C(F)F)cc43)nn2C2CC3(C2)CC2(CCN(c4ccc(C(=O)N[C@H]5CC[C@H](Oc6ccc(C#N)c(Cl)c6)CC5)nn4)CC2)C3)C1` [Compound 191, 6-[2-[5-acetyl-3-[7-(difluoromethyl)-6-(1-methylpyrazol-4-yl)-3,4-dihydro-2H-quinolin-1-yl]-6,7-dihydro-4H-pyrazolo[4,3-c]pyridin-1-yl]-9-azadispiro[3.1.56.14]dodecan-9-yl]-N-[4-(3-chloro-4-cyano-phenoxy)cyclohexyl] pyridazine-3-carboxamide], the EC50 at AR / CBP ternary complex (setting [1]) was below 1 nM. In the assay on VCaP cells, the IC50 fell in the range of 0.1 to 1 nM.

Turning to `CC(=O)N1CCc2c(c(N3CCCc4cc(-c5cnn(C)c5)c(C(F)F)cc43)nn2C2CCN(CC3CCN(c4ccc(C(=O)N[C@H]5CC[C@H](Oc6ccc(C#N)c(Cl)c6)CC5)nn4)CC3(C)C)CC2)C1` (stereo partly drawn) [Compound 230, 6-[4-[[4-[5-acetyl-3-[7-(difluoromethyl)-6-(1-methylpyrazol-4-yl)-3,4-dihydro-2H-quinolin-1-yl]-6,7-dihydro-4H-pyrazolo[4,3-c]pyridin-1-yl]-1-piperidyl]methyl]-3,3-dimethyl-1-piperidyl]-N-[4-(3-chloro-4-cyano-phenoxy)cyclohexyl]pyridazine-3-carboxamide], the EC50 on AR / CBP ternary complex (setting [1]) is below 1 nM. In the assay on VCaP cells, this compound displayed a half-maximal inhibitory concentration (IC50) of at most 0.1 nM.

`CC(=O)N1CCc2c(c(N3CCCc4cc(-c5cnn(C)c5)c(C(F)F)cc43)nn2C2CCN(C3CN(c4ccc(C(=O)N[C@H]5CC[C@H](Oc6ccc(C#N)c(Cl)c6)CC5)nn4)C3)CC2)C1` [Compound 206, 6-[3-[4-[5-acetyl-3-[7-(difluoromethyl)-6-(1-methylpyrazol-4-yl)-3,4-dihydro-2H-quinolin-1-yl]-6,7-dihydro-4H-pyrazolo[4,3-c]pyridin-1-yl]-1-piperidyl]azetidin-1-yl]-N-[4-(3-chloro-4-cyano-phenoxy)cyclohexyl]pyridazine-3-carboxamide]: the EC50 at AR / CBP ternary complex (setting [1]) was below 1 nM. For the same compound, the IC50 in the assay with VCaP cells was at most 0.1 nM.

For `CC(=O)N1CCc2c(c(N3CCCc4cc(-c5cnn(C)c5)c(C(F)F)cc43)nn2C2CCN(C(=O)COC3CCN(c4ccc(C(=O)N[C@H]5CC[C@H](N(C)c6ccc(C#N)c(Cl)c6)CC5)cc4)CC3)CC2)C1` [Compound 12, 4-[4-[2-[4-[5-acetyl-3-[7-(difluoromethyl)-6-(1-methylpyrazol-4-yl)-3,4-dihydro-2H-quinolin-1-yl]-6,7-dihydro-4H-pyrazolo[4,3-c]pyridin-1-yl]-1-piperidyl]-2-oxo-ethoxy]-1-piperidyl]-N-[4-(3-chloro-4-cyano-N-methyl-anilino)cyclohexyl]benzamide], the EC50 at AR / CBP ternary complex (read-out: Average Ternary Complex, treated 1.5 hours, rabbit CBP or p300 antibody detection) was below 1 nM. For the same compound, the IC50 in the assay on VCaP cells was at most 0.1 nM.

For `CC(=O)N1CCc2c(c(-c3cccc4cc(-c5ccc(CCC6CC7(C6)CN(c6ccc(C(=O)N[C@H]8CC[C@H](Oc9ccc(C#N)c(Cl)c9)CC8)nn6)C7)nc5)ncc34)nn2C)C1` [Compound 51, 6-[6-[2-[5-[8-(5-acetyl-1-methyl-6,7-dihydro-4H-pyrazolo[4,3-c]pyridin-3-yl)-3-isoquinolyl]-2-pyridyl]ethyl]-2-azaspiro[3.3]heptan-2-yl]-N-[4-(3-chloro-4-cyano-phenoxy)cyclohexyl]pyridazine-3-carboxamide], the EC50 on AR / CBP ternary complex (setting [1]) is below 1 nM. The IC50 in the assay on VCaP cells is 0.1 to 1 nM.

With `Cn1cc(-c2cc3c(cc2C(F)F)N(c2cc(C4CCN(CC5CCN(c6ccc(C(=O)N[C@H]7CC[C@H](Oc8ccc(C#N)c(Cl)c8)CC7)nn6)CC5)CC4)c4c(c2)n(C)c(=O)n4C)CCC3)cn1` [Compound 33, N-[4-(3-chloro-4-cyano-phenoxy)cyclohexyl]-6-[4-[[4-[6-[7-(difluoromethyl)-6-(1-methylpyrazol-4-yl)-3,4-dihydro-2H-quinolin-1-yl]-1,3-dimethyl-2-oxo-benzimidazol-4-yl]-1-piperidyl]methyl]-1-piperidyl]pyridazine-3-carboxamide], the EC50 at AR / CBP ternary complex (setting [1]) was below 1 nM. In addition, the IC50 in the assay with VCaP cells was in the range of 0.1 to 1 nM.

For orientation: IC50 means the concentration needed to halve the response being measured. A lower IC50 goes with greater potency.

The values are drawn from patent publication US20250136578A1 (Kolm Therapeutics Inc., priority 2023, published 2025).
